No end group written: not given here. *: point of attachment. Biotin = O=C1N[C@H]2[C@H](CS[C@H]2CCCCC(=O)*)N1
T1: KLHDC2 (Homo sapiens, UniProt Q9Y2U9)
T1 construct: human KLHDC2 (UniProt: Q9Y2U9, amino acid 1–362); made in house; host or cells: HighFive insect cells (baculovirus, pFastBac)
T1 sequence (Q9Y2U9 1-362): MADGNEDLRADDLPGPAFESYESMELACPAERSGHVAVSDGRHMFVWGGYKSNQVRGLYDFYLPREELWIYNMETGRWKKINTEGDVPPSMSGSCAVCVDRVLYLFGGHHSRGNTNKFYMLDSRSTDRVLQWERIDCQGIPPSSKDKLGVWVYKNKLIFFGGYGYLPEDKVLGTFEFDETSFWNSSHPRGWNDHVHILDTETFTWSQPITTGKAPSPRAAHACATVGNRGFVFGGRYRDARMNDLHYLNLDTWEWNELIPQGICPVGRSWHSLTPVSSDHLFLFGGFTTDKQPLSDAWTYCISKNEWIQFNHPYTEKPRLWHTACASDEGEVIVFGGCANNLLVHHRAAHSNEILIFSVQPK

T2: GST-tagged kelch repeat domain of human KLHDC2 (amino acid 1-362) (human, UniProt Q9Y2U9 1-362)
T2 construct: kelch repeat domain of human KLHDC2, UniProt Q9Y2U9, amino acids 1-362; A TEV cleavage site lies between GST and KLHDC2; GST was not cleaved for the AlphaLISA and BLI assays; The crystallised construct (22-362, His-TSF cleaved, from E. coli) was used only with the small molecule C29; also called GST-KLHDC2; GST-tagged KLHDC2; source: HighFive insect cells (baculovirus), purified (glutathione …)
T2 sequence (looked up): T1 sequence (Q9Y2U9 1-362)

B1: N-terminal biotinylated 12 aa SelK degron peptide (peptide)
peptide: Biotin-HLRGSPPPMAGG
notes: diglycine-containing C-end degron of SelK (selenoprotein K), 12 aa; the C-terminal mark is cut off in print; also called SelK C-end degron peptide; biotinylated 12 aa SelK peptide; source: synthetic peptide (Bio-Synthesis, Inc.)

target: T1, KLHDC2; assay: AlphaLISA competition assay (displacement of SelK C-end degron peptide from GST-KLHDC2); type: binding; conditions: IC50, competition with biotinylated 12 aa SelK degron peptide; 12-point titration, n = 3 technical replicates
Description: We took the top-ranked 1000 compounds and filtered out compounds with low predicted solubility, unsatisfied hydrogen bonds in the bound conformation, and followed by similarity clustering to reduce the redundancy in ligand structures. A total of 54 molecules that passed the filtering and clustering were manually examined for favorable interactions and geometries in PyMol[34]. Finally, 37 compounds were chosen for chemical synthesis. Out of these, 29 compounds were successfully synthesized (Supplementary Fig. 13) and characterized in an AlphaLISA competition assay, in which each compound was tested for its ability to compete with a diglycine-containing SelK C-end degron peptide for binding KLHDC2. […] This single digit μM IC50 was further confirmed in a competition assay using BioLayer Interferometry (Supplementary Fig. 14).
The kelch repeat domain of human KLHDC2 (UniProt: Q9Y2U9, amino acid 1–362) was subcloned into the pFastBac vector with an N-terminally fused glutathione-S-transferase (GST), and a TEV-cleavage site. A recombinant baculovirus was produced and amplified three times in Sf9 monolayer cells to produce P4. The P4 virus was used to infect HighFive suspension insect cell cultures to produce the recombinant GST-KLHDC2 protein. The cells were harvested 2–3 days post-infection, re-suspended, and lysed in lysis buffer (20 mM Tris, pH 8.0, 200 mM NaCl, 5 mM DTT) in the presence of protease inhibitors (1 μg/ml Leupeptin, 1 μg/ml Pepstatin and 100 μM PMSF) using a microfluidizer. The GST-KLHDC2 protein was isolated from the soluble cell lysate by PierceTM Glutathione Agarose (Thermo Scientific). For AlphaLISA competition assays, the GST-tagged KLHDC2 was further purified by Q Sepharose High-Performance resin (GE Healthcare). The NaCl eluates were subjected to a Superdex-200 size exclusion chromatography column (GE Healthcare). All samples were flash-frozen in liquid nitrogen for storage prior to use. For protein crystallization, the kelch repeat domain of human KLHDC2 (amino acids 22–362) was subcloned into the pET vector with an N-terminally fused His-elongation factor Ts (TSF) and a TEV-cleavage site. The His-TSF-KLHDC2 protein was overexpressed and purified from BL21 (DE3) E. coli cells. Bacterial cells transformed with the pET-based expression plasmid were grown in LB broth to an OD600 of 0.8–1 and induced with 0.5 mM IPTG. Cells were harvested, re-suspended, and lysed in lysis buffer (20 mM Tris, pH 8.0, 200 mM NaCl, 20 mM imidazole) in the presence of protease inhibitors (1 μg mL–1 leupeptin, 1 μg mL–1 pepstatin and 100 μM phenylmethylsulfonyl fluoride) using a microfluidizer. The His-TSF-KLHDC2 protein was isolated from the soluble cell lysate by HisPurTM Ni-NTA Superflow Agarose (Thermo Fisher Scientific, Waltham, Massachusetts). After TEV cleavage of the His-TSF, KLHDC2 was further purified by Mono Q™ 5/50 GL (GE Healthcare, Chicago, Illinois). The NaCl eluates were subjected to Superdex-200 size-exclusion chromatography (GE Healthcare). Native mass spectrometry was used to confirm KLHDC2 in its apo form. The samples were concentrated by ultrafiltration to 10–22 mg mL−1. All samples were flash-frozen in liquid nitrogen for storage prior to use.
AlphaLISA assays for determining and measuring protein-protein interactions were performed using an EnSpire reader (PerkinElmer). GST-tagged KLHDC2 was attached to anti-GST AlphaLISA acceptor beads. Synthetic N-terminal biotinylated 12 aa SelK degron peptide ([Biotin]HLRGSPPPMAGG[C) (Bio-Synthesis, Inc.) was immobilized to streptavidin-coated AlphaLISA donor beads. The donor and acceptor beads were brought into proximity by the interactions between the SelK peptide and KLHDC2. Excitation of the donor beads by a laser beam of 680 nm promotes the formation of singlet oxygen. When an acceptor bead is in close proximity, the singlet oxygen reacts with thioxene derivatives in the acceptor beads and causes the emission of 615 nm photons, which are detected as the binding signal. […]

Going from CC(=CC(=O)N1CCN(C(=O)Cc2cnc3ncccn23)C2CC21)C(C)C (stereo not shown) [Compound C1] to CC(NC(=O)CSCc1nc2ccccc2s1)c1cn(CC(=O)O)nn1 (stereo not shown) [Compound C2.20], the IC50 falls from 488 µM to 4.1 µM (120-fold).

First: CN(Cc1cn(CC(=O)O)nn1)C(=O)CCCSc1ccc(Cl)cc1 [Compound C2.4]
Second: C=CCN(Cc1cn(CC(=O)O)nn1)C(=O)CCSCc1ccccc1 [Compound C2.19]
The IC50 of the first is 2.9-fold higher: 10 µM for the first, 3.4 µM for the second. The second is the more potent here.

Going from C=CCN(Cc1cn(CC(=O)O)nn1)C(=O)CSc1cc(C)ccc1C [Compound C2.6] to Cc1cc(C)c(C(=O)NCC(=O)NCc2cn(CC(=O)O)nn2)s1 [Compound C2.8], the IC50 falls from 6.2 µM to 1.1 µM (5.6-fold).

Going from O=C(O)Cn1cc(CNC(=O)c2ccccc2SCC2CCCO2)nn1 (stereo not shown) [Compound C2.16] to Cc1cc(C(=O)NCCCn2cnnn2)c(C)n1Cc1ccccc1 [Compound C17], the IC50 rises from 3.3 µM to 121 µM (37-fold). The first is the more potent here.

Compared with C[C@H]1CN(C(=O)C(OC(C)(C)C)C(C)(C)C)C[C@H]1NC(=O)CCn1ccnn1 (stereo partly shown) [Compound C4], CC1(C)CCCC(CC(=O)NC(C)(C)CNC(=O)c2ccnnc2S)C1 (stereo not shown) [Compound C6] is 17-fold lower in IC50: 2070 µM for the first, 124 µM for the second.

Molecule COc1ccc(CN(C)C(=O)COC(=O)Cn2ccnn2)cc1OC [Compound C18] has an IC50 of 377 µM.

target: T2, GST-tagged kelch repeat domain of human …; assay: AlphaScreen or HTRF; AlphaLISA competition assay: GST-KLHDC2 (3.83 nM) on anti-GST acceptor beads, biotinylated SelK peptide (5.55 nM) on streptavidin donor beads; 25 mM HEPES pH 7.5, 100 mM NaCl, 1 mM TCEP, 0.1% Tween-20, 0.05 mg/ml BSA; small-molecule competitors 15 nM to 1.5 mM; conditions: both partners purified

B1: binds.

target: T3, hNaV1.7 channel (Homo sapiens, UniProt Q15858); assay: Whole-cell patch-clamp electrophysiology on hNaV1.7 stably expressed in HEK-293 cells; type: cell-based; conditions: NaV1.7 inactivated state, -70 mV holding potential; mean; read-out: inactivated-state IC50
T3 construct: expressed in transfected cells
Description: We first clustered the top 100,000 ranked small molecules, then applied filters on the top 1000 cluster representative molecules. A total of 160 molecules that passed the clustering and filtering were examined manually. To ensure the chemical novelty of our selection, we specifically excluded molecules that contain the known arylsulfonamide warhead or structurally resemble antihistamines or beta-receptor blockers. Finally, ten molecules with Tanimoto similarities of less than 0.33 to the known inhibitors of NaV1.7 from the ChEMBL database[43],[44] were selected for synthesis. Of these, nine were successfully synthesized (Supplementary Fig. 16), and their activities were measured using the whole-cell patch-clamp electrophysiology assay on hNaV1.7 channel stably expressed in HEK-293 cells as described in Methods.
HEK-293 cells stably expressing human NaV1.5 and NaV1.7 were obtained from Dr. Chris Lossin (UC Davis, CA). HEK293 cells stably expressing HERG (hKv11.1) were a gift from Craig January (University of Wisconsin, Madison). Cells were cultured in complete DMEM supplemented with 10% FBS, 1% penicillin/streptomycin, and G418. All manual whole-cell patch-clamp recordings were performed at room temperature (22–24 °C) using an EPC-10 amplifier (HEKA Electronik, Lambrecht/Pfalz, Germany) on cells that were grown to 60–80% confluency, lifted with TrypLE, and plated onto poly-l-lysine–coated coverslips. External bath solution contains (in mM) 160 NaCl, 4.5 KCl, 2 CaCl2, 1 MgCl2, 10 HEPES (pH 7.4 and 305 mOsm) as. Patch pipettes were heat-pulled from soda lime glass (micro-hematocrit tubes, Kimble Chase, Rochester, NY) and had resistances of 2–3 MΩ when filled with an internal solution. Patch recordings of NaV1.5 and NaV1.7 channels were done using a cesium fluoride-based internal solution containing (in mM) 10 NaF, 110 CsF, 20 CsCl, 10 HEPES, 2 EGTA, (pH 7.4, 310 mOsm). Recordings of HERG channels were conducted using a potassium fluoride-based internal solution with added ATP (160 mM KF, 2 mM MgCl2, 10 mM EGTA, 10 mM HEPES, 4 mM NaATP, pH = 7.2 and 300–320 mOsm). Data acquisition and analysis were performed with Pulse-PulseFit (HEKA Electronik GmbH, Germany), IgorPro (WaveMetrics, Portland, OR), and Origin 9.0 software (OriginLab Corporation, Northampton, MA). To investigate specifically the inactivated state block of NaV1.7 and NaV1.5, holding potentials were set at the V1/2 of maximal inactivation (− 70 mV and − 80 mV, respectively) before voltage stepping to − 150 mV for 20 msec, and then 0 mV for 50 msec to elicit inward currents. Inhibition of currents in the resting state was recorded using a holding potential of − 120 mV. Control test currents were monitored for up to 5–10 min to ensure that the amplitude and kinetics of the response were stable. Series resistance was compensated to 80–90% and linear leak currents and capacitance artifacts were corrected using a P/4 subtraction method. The pulse interval was 0.1 Hz. For all experiments, stock solutions of the drugs were prepared fresh from 10 mM stocks in DMSO and test solutions prepared in external bath solutions were applied to individual cells into the recording bath. […] The percent reduction of HERG tail current amplitude by the compounds was determined. The percent of a block of tail current amplitude by the drugs was determined and data are shown as mean +/− SD (n = 3–4 per data point).

T3 sequence (Q15858 whole entry): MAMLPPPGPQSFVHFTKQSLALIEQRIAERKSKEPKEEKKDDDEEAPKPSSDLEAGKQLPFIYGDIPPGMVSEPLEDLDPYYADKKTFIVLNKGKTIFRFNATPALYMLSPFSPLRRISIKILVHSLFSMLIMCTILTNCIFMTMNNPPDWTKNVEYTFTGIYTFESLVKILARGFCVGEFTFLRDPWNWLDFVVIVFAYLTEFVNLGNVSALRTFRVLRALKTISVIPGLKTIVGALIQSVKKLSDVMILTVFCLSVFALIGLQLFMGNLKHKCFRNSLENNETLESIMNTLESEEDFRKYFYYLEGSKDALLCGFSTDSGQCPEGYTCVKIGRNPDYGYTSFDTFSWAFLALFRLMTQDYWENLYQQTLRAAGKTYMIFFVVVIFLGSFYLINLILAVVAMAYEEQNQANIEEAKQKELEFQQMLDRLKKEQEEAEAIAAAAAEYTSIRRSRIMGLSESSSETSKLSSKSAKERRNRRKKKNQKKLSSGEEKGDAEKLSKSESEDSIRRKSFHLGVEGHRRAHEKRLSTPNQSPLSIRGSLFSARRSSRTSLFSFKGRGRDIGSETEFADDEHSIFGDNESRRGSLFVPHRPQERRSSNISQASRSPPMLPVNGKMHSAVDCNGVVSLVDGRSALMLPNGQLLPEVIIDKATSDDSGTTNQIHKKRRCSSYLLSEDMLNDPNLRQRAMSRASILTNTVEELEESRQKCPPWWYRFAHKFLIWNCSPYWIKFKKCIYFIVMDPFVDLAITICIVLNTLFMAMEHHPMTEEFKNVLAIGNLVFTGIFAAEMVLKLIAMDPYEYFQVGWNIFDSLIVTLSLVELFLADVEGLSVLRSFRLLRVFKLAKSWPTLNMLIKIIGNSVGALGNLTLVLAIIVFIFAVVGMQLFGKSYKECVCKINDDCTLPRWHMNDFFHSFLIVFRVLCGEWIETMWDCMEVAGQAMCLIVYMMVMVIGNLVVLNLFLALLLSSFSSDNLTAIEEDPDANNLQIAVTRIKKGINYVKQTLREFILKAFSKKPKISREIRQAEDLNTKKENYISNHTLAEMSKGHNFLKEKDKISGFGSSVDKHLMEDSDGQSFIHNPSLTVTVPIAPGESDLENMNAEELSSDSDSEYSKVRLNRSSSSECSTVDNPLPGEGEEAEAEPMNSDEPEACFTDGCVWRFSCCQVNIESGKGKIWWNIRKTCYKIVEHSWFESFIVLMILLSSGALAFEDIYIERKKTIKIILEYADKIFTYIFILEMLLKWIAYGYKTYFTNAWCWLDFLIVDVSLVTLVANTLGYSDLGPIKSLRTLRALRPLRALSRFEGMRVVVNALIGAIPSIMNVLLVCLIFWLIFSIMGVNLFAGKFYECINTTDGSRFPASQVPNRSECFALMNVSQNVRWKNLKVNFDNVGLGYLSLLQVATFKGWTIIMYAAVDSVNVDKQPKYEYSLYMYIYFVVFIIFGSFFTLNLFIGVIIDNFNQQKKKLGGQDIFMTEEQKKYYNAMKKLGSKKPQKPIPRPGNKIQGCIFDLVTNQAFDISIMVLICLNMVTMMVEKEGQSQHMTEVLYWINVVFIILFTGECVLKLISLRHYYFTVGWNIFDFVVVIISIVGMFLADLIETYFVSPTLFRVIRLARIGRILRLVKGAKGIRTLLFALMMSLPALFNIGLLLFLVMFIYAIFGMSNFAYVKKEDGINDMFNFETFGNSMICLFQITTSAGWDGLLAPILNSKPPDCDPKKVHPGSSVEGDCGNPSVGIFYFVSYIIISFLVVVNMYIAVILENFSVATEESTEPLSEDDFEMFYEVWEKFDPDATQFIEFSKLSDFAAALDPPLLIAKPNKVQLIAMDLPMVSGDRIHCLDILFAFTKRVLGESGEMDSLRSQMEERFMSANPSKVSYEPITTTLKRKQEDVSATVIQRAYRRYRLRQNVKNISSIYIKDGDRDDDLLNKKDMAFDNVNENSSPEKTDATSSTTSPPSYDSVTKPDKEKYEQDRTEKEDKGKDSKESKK

CC(C)=CCOc1ccc(CCC(C)NCC(O)CCC2CC2)cc1 (stereo not shown) [Compound Z8739905023, CC(CCC=1C=CC(OCC=C(C)C)=CC1)NCC(O)CCC2CC2] showed an IC50 of 2.3 µM.

Source: publication PMC11377542, “An artificial intelligence accelerated virtual screening platform for drug discovery” (Nature Communications, 2024)
